From a melting point compilation (Tetko et al.; mined from patent text by program, amines drawn as free bases though some values may be those of a salt)

First: Cc1cc(CCc2cc(C)cc(C(C)(C)C)c2O)c(O)c(C(C)(C)C)c1
Second: Cc1cccc(-c2ccc3c(ccn3Cc3ccc(C(C)(C)C)cc3)c2)c1
The melting point of the first is higher: 104 to 105 °C for the first, 94 to 95 °C for the second.

First: CCCCC(C)OC(=O)c1ccccc1S(=O)(=O)NC(=O)Nc1nc(C)nc(OC)n1 (centres undefined)
Second: CCCONNc1nc(C(=O)c2ccccc2O)nc(C(=O)c2ccccc2O)n1
The melting point of the first is lower: 125 to 130 °C for the first, 258 to 260 °C for the second.

Going from `C(=NNc1ccccc1)c1cccnc1` to `Cc1ncc([N+](=O)[O-])cc1Nc1nccc(-c2ccccc2)n1`, the melting point falls from 156 °C to 133 °C.

Compared with `CN(c1ncnc2c1ncn2Cc1ccccc1F)n1cccc1`, `CC(=O)c1cn(Cc2ccccc2F)c(=O)n(Cc2ccccc2F)c1=O` is higher in melting point: 147 to 149 °C for the first, 149 to 150 °C for the second.

Compared with `CC(C(=O)n1c(=O)oc2ccccc21)C(O)C(C)(C)C` (centres undefined), `CC(C)C(=O)Nc1ccccc1C(F)(F)F` is higher in melting point: 90 to 92 °C for the first, 114 °C for the second.

Compared with `Cc1nnc(-c2ccc3occ(-c4ccc(C(C)O)cc4)c3c2)o1` (centres undefined), `CC(C)n1cc(-c2ccc(C(O)c3ccccc3)cc2)c2c(N)ncnc21` (centres undefined) is higher in melting point: 148 to 149 °C for the first, 279 to 281 °C for the second.

First: Nc1nc(Cl)cc(CCl)n1
Second: C=CCNC1=NS(=O)(=O)c2ccc(Cl)cc2N1
The melting point of the first is lower: 126 to 128 °C for the first, 284 to 286 °C for the second.

First: CCOC(=O)C(Cc1ccc(OC)c(OC)c1)NC(=O)c1ccccc1 (centres undefined)
Second: CCOC(=O)c1c[nH]c2c(OC)ccc(-c3ccccc3)c2c1=O
The melting point of the first is lower: 82 to 83 °C for the first, 234 to 237 °C for the second.

First: CCCn1c(=O)oc2cc(F)c([N+](=O)[O-])cc21
Second: O=[N+]([O-])c1oc2ccccc2c1Br
The melting point of the first is higher: 148 to 152 °C for the first, 130 to 132 °C for the second.

First: CN1C[C@@H](C(=O)OCc2ccccc2)N(C(=O)OCc2ccccc2)C1=O
Second: CC(C)c1cc(O)ccc1OCc1ccccc1
The melting point of the first is higher: 120 to 122 °C for the first, 39 to 40 °C for the second.

First: CNc1ncc2c(=O)[nH]c(-c3ccccc3OC)nc2n1
Second: CCOC(=O)c1ncc2[nH]c3cccc(Oc4ccccc4)c3c2c1COC
The melting point of the first is higher: 265 to 267 °C for the first, 174 to 176 °C for the second.

First: CCNC(=O)c1cccs1
Second: CCNc1cn(-c2cccnc2)nc1Cl
The melting point of the first is lower: 75 to 78 °C for the first, 89 to 90 °C for the second.

Compared with `O=C(O)Cn1cnnn1`, `C=CCn1c(=O)c(C(=O)OCC)c(O)c2ccc(C)nc21` is lower in melting point: 125 to 127 °C for the first, 110 to 112 °C for the second.

`CN1CCN(c2cc(Cl)cc3c2c(=O)n(Cc2ccc([N+](=O)[O-])cc2)c(=O)n3Cc2ccccc2)CC1` and `CCOC(=O)c1c(Cl)c2cccnc2n(Cc2ccccc2)c1=O` cannot be ordered by melting point: 109 to 113 °C for the first, 109 °C for the second.

Compared with `COCc1cc(Oc2ccc3c(C(=O)Nc4ccc(C)c(C(F)(F)F)c4)cccc3c2)ncn1`, `O=S(=O)(Nc1ccc2c(OCc3cccc(-c4ccc(F)cc4)c3)cccc2c1)C(F)(F)F` is lower in melting point: 188 °C for the first, 110 to 112 °C for the second.

First: CC#CCOc1ccc(S(=O)(=O)N(C)C(C(=O)NO)c2ccc(OCCCNC(=O)OCCCC)cc2)cc1 (centres undefined)
Second: CCCc1nc2c(N)nc3cc(OCCCNS(C)(=O)=O)ccc3c2s1
The melting point of the first is lower: 50 to 55 °C for the first, 168 to 171 °C for the second.

Compared with `CCCCCCCCCCCC(=O)c1ccc(/C=C/C(=O)O)o1`, `CCCCCCCCCCCCCCOc1ccccc1C(=O)Cc1nnn[nH]1` is lower in melting point: 122 to 127 °C for the first, 67 to 69 °C for the second.

First: Nc1cc(N2CCN(C(c3ccccc3)(c3ccccc3)c3ccccc3)CC2)nc(N)n1
Second: FC(F)(F)Oc1ccc(Nc2cc(-c3ccccc3)nc(-c3ccccc3)n2)cc1
The melting point of the first is lower: 152 to 160 °C for the first, 220 to 222 °C for the second.

First: CCOC(=O)CCC(Oc1cc(OCc2ccsc2)ccc1C(N)=S)c1ccccc1C (racemic)
Second: COc1cccc(OCC(=O)c2cc(OCc3ccccc3)ccc2OC)c1
The melting point of the first is higher: 134 to 135 °C for the first, 76 to 77 °C for the second.

First: COC(=O)COc1ccc(C(=O)C(C)N2CCN(c3ccncc3)CC2)cc1 (racemic)
Second: O=C(Nc1ccc(Oc2ccc(N3CCC(O)CC3)cc2)cc1)c1ccc(Cl)c(Cl)c1
The melting point of the first is lower: 81 to 83 °C for the first, 178 to 180 °C for the second.

First: NS(=O)(=O)OCCOc1ccc(-n2cncn2)cc1
Second: CC(C)(C(=O)C(Oc1ccc(Cl)cc1Cl)n1cncn1)C(Cl)Cl (centres undefined)
The melting point of the first is higher: 134 to 136 °C for the first, 120 to 121 °C for the second.

First: COC(=O)c1cc2cc(OC)c(OC)cc2c(C)c1C(=O)OC
Second: COc1ccc(C=Cc2cc(OC)c(OC)c(OC)c2)c(O)c1O
The melting point of the first is higher: 142 to 144 °C for the first, 114 to 115 °C for the second.

Compared with `COc1ccc(CNC(=S)SC)cc1`, `CCCc1cc(Cl)c(O)c2c(C)c(Cc3ccc(OC)cc3)oc12` is higher in melting point: 67 to 70 °C for the first, 99 to 100 °C for the second.

First: C[C@@H](Cn1ncc2ccc3c(c21)O[C@@H](CN=[N+]=[N-])CO3)NC(=O)OC(C)(C)C
Second: Cc1ccc2c(c1)O[C@@H](CN1CCC(CNC(=O)c3cccnc3N)CC1)CO2
The melting point of the first is lower: 134 to 135 °C for the first, 143 to 146 °C for the second.

`Cc1nn(CC(F)(F)COC(=O)N(C)C)c(-c2ccc(F)cc2)c1-c1ccc2c(c1)NC(=O)CO2` and `CC(C)n1nc(-c2sc(C(=O)NC3CC3)nc2-c2cccc(F)c2)ccc1=O` cannot be ordered by melting point: 146 °C for the first, 146 to 147 °C for the second.

First: Cc1cc(Br)cc(Br)c1NC(=N)Nc1c(C)cc([N+](=O)[O-])cc1Br
Second: O=[N+]([O-])c1cc(I)cc(OCc2ccccc2)c1
The melting point of the first is higher: 193 to 195 °C for the first, 79 to 80 °C for the second.

First: NC(=O)c1ccc(C(=O)C=C(c2cc(Cl)cc(Cl)c2)C(F)(F)F)cc1
Second: O=C(O)c1cnn2c(C(F)(F)F)cc(-c3ccc(Cl)c(Cl)c3)nc12
The melting point of the first is lower: 156 to 160 °C for the first, 264 °C for the second.

Compared with `Cc1cc(-c2cnn3c(C(F)F)cc(-c4ccc(C(F)(F)F)c(C)c4)nc23)ccn1`, `Cc1cc(Nc2c(C#N)cnc3cc(Br)ccc23)ccc1OCc1ccccn1` is higher in melting point: 221 °C for the first, 238 to 241 °C for the second.

First: COC(=O)C(=C/c1c(OC)cc(OC)cc1OC)/C(=C\c1ccccc1)C(N)=O
Second: COc1c(C)cc(C(=O)O)cc1-c1ccccc1
The melting point of the first is higher: 169 to 171 °C for the first, 165 to 168 °C for the second.

First: ON=C(Cl)c1ccc(C(Cl)=NO)cc1
Second: Cn1cc(C(O)c2ccncc2)cc1C(=O)c1ccc(Cl)cc1 (centres undefined)
The melting point of the first is higher: 178 to 180 °C for the first, 145 to 146 °C for the second.

First: CCOC(=O)C=C(C)C=CC=O
Second: COC(=O)/C=C/c1ccc(NC(C)=O)nc1
The melting point of the first is lower: 49 to 50 °C for the first, 172 to 200 °C for the second.

Compared with `Cc1cccc2c1oc1c(NC(=O)c3ccccn3)n(C)nc12`, `Cc1c(OCc2ccccc2)ccc2c(O)c(C(=O)Nc3cccc(Br)c3)c(=O)oc12` is higher in melting point: 167 to 168 °C for the first, 229 to 231 °C for the second.

Compared with `Brc1ccc2c(Sc3ccccc3)c[nH]c2c1`, `N#Cc1ccc(C#N)c(Sc2ccccc2)c1` is lower in melting point: 145 to 148 °C for the first, 106 °C for the second.

Compared with `CCOC(=O)CCc1cn(Cc2cc(OCc3nc(-c4ccccc4)oc3C)no2)nc1OCC`, `CCCCCc1ccc(-c2c(C(C)C)cc(-c3ccccc3)c(CO)c2C(C)C)nc1` is lower in melting point: 82 to 83 °C for the first, 56 to 58 °C for the second.

Compared with `CN1C(=O)C(c2ccc(OC(F)F)cc2)(C23CC4CC(CC(C4)C2)C3)N=C1N` (centres undefined), `CC(C)n1nc(-c2c(-c3ccccc3)nc(N)nc2N2CCCCC2)ccc1=O` is higher in melting point: 216 to 218 °C for the first, 221 to 223 °C for the second.

First: CSC1C(=O)Nc2c(Oc3ccc4ccccc4c3)cccc21 (centres undefined)
Second: CS(=O)(=O)Nc1cc2c(cc1Oc1ccccc1)CCO2
The melting point of the first is higher: 174 to 175 °C for the first, 133 °C for the second.

First: COC(=O)C1=C(CO)NC(C)=C(C(=O)OC(C)C)C1c1ccccc1C#N (centres undefined)
Second: C[C@H](NC1Cc2ccccc2C1)C(=O)O
The melting point of the first is lower: 134 to 137 °C for the first, 285 °C for the second.

Compared with `CC1CC2=CC(=O)CCC2=C2CCC3(C)C(=O)CCC3C21` (centres undefined), `COc1cccc2c1CCC1C(C)=C(O[Si](C)(C)C)CCC21C` (centres undefined) is lower in melting point: 204 to 205 °C for the first, 79 °C for the second.

Compared with `COC(=O)c1cc(Oc2c(Cl)cc(Cl)cc2Cl)ccc1[N+](=O)[O-]`, `COc1ccc(-c2c([N+](=O)[O-])cnc3ccc(Cl)cc23)cc1OC` is higher in melting point: 101 to 103 °C for the first, 188 to 190 °C for the second.

First: O=C(O)CCc1cc(Cl)cc2nc(-c3ccccc3Cl)oc12
Second: O=C(O)CCc1cc(OCc2cc(COc3ccc(Cl)cc3Cl)cc(OCc3ccccc3)c2)nn1-c1ccccc1
The melting point of the first is higher: 152 to 154 °C for the first, 126 to 130 °C for the second.

First: CC(C)(C)C1=CC(c2cccc([N+](=O)[O-])c2)C2=C(CCCC2=O)N1 (centres undefined)
Second: Cc1nc2c(c(=O)[nH]1)-c1cc(S(=O)(=O)Nc3ccc([N+](=O)[O-])cc3)ccc1CC2
The melting point of the first is lower: 180 to 182 °C for the first, over 240 °C for the second.

Compared with `CC(C)(C)OC(=O)Nc1ccc(-c2cccc(F)c2F)cc1NC(=O)CC(=O)c1cccc(C#N)c1`, `O=C(Nc1cccnc1S(=O)(=O)c1ccccc1)N[C@@H](Cc1ccc(NC(=O)c2c(Cl)cccc2Cl)cc1)C(=O)O` is higher in melting point: 118 °C for the first, 181 °C for the second.

Compared with `Cn1nc(C(F)(F)F)n(-c2ccc(O)cc2)c1=S`, `O=C(c1c[nH]c2cc([N+](=O)[O-])ccc12)C(F)(F)F` is higher in melting point: 150 to 152 °C for the first, 263 to 265 °C for the second.

First: CC(C)(C)COc1ccc(N)cc1C#N
Second: CCC(C)COC(=O)c1ccc(-c2ccc(O)cc2)cc1 (centres undefined)
The melting point of the first is lower: 55 to 56 °C for the first, 112 to 113 °C for the second.

First: Cc1nc2c(Cl)cc(F)c(-n3c(=O)cc(C(F)(F)F)n(C)c3=O)c2s1
Second: CCOC(=O)c1cc2c([nH]1)c(N(C)S(=O)(=O)c1cccs1)cn2Cc1ccccc1
The melting point of the first is lower: 83 to 85 °C for the first, 120 °C for the second.

Compared with `COc1ccccc1[C@@]1(O)[C@H](O)CC(c2ccccc2)(c2ccccc2)[C@@H]2CN(C(=O)Cc3c[nH]c4ccccc34)C[C@@H]21` (racemic), `O=C(NC(C(=O)O)c1ccccc1)c1ccccc1SSc1ccccc1C(=O)NC(C(=O)O)c1ccccc1` (centres undefined) is lower in melting point: 266 °C for the first, 231 to 232 °C for the second.

Compared with `CCCCCCCCCCCCCCCCCCCCCCOC(=O)C(C)O` (centres undefined), `CC(=O)SCC(C(=O)O)C(F)(F)F` (centres undefined) is lower in melting point: 57 °C for the first, 28 to 30 °C for the second.

First: NC(=N[N+](=O)[O-])N1CCN(Cc2ccc(Cl)nc2)C1
Second: O=C1C(CN2CCN(CCO)CC2)CCN1c1ccc(Cl)cc1 (centres undefined)
The melting point of the first is higher: 170 to 174 °C for the first, 130 to 131 °C for the second.

First: CC1CC2C3CCC4=CC(=O)C=CC4(C)C3(F)C(O)CC2(C)C1(O)C(=O)COC(=O)OCc1ccccc1[N+](=O)[O-] (centres undefined)
Second: CN1CCC(NNC(=O)c2ccccc2)CC1
The melting point of the first is higher: 203 to 204 °C for the first, 149 to 150 °C for the second.

For `Clc1ccc2[nH]cc([C@H]3CC[C@@H](N4CCN(c5cccc6[nH]ccc56)CC4)CC3)c2c1`, the melting point was 283 to 285 °C.
